Measurements taken from patent publication US11542492B2 (Celgene CAR LLC, priority 2009, dated 2023).

Molecular target: T1, recombinant human cIAP-1 (Homo sapiens, UniProt Q13490)
T1 construct: purchased R&D Systems 818-IA
Test: Fluorescence polarization competition binding assay, cIAP-1
Details: c-IAP-1, 3 h
Experimental: Homogeneous, Fluorescence Polarization, Competition Binding Assay Protocol for Affinity Assessment of Compound Binding to XIAP, cIAP-1 and ML-IAPβ BIR3 Domains
1× stocks of recombinant human XIAP; BIR3 domain (895-XB), recombinant human cIAP-1 (818-IA) or recombinant human ML-IAPβ (818-IA) from R&D Systems and Fluorescence Polarization (FP) assay tracer (Atto-647 tagged IAP inhibitor probe compound) were prepared in assay buffer consisting of 25 mM Tris-HCL, pH 7.5 (Sigma), 10 mM […] (Sigma), 1 mM DTT (Fluka) and 0.005% TritonX-100 (Pierce). While IAP protein and tracer equilibrated at ambient temp in the dark (30-60 min), 100× stocks of test compound were prepared in 50% DMSO:H2O, serially diluted and spotted (0.5 µL/well) in duplicate wells of a 384-well, flat bottom, polypropylene, black assay plate (Greiner #781209). […] Competition binding between test compounds and assay tracer was initiated by the addition of 50 µL/well of pre-equilibrated IAP protein and assay tracer. Displacement of the assay tracer was measured in a Synergy plate reader from BioTek (Winooski, Vt.) at λex620/λem680 through a 660 nm half-sized dicroich mirror and S/P polarizing filters every 30 min for 3 hr. (See Huang, X., Journal of Biomolecular Screening 8, 2003). The resulting compound dose response data were fit to a one-site binding Ki model in GraphPad Prism from GraphPad Software (San Diego, Calif.).

T1 sequence (Q13490 whole entry): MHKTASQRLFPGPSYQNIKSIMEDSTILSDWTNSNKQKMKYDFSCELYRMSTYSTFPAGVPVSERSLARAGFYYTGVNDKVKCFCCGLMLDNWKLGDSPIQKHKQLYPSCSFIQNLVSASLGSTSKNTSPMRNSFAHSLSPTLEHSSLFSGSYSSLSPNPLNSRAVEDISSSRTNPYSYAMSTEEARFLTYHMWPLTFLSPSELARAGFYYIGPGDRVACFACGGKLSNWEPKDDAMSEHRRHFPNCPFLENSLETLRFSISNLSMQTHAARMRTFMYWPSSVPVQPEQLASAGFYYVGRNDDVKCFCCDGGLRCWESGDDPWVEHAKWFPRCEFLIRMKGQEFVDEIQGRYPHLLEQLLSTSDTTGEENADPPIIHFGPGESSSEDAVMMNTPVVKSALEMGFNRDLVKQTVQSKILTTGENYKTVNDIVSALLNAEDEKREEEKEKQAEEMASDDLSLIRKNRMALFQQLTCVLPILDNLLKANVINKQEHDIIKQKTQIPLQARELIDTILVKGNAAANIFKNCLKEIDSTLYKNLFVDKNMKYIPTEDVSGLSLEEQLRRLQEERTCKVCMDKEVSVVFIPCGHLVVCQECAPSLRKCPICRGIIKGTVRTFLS

Row | Compound | Ki [nM]
1 | CN[C@@H](C)C(=O)N[C@H]1CCCC[C@H]2CC[C@@H](C(=O)NCc3cccc(OC4CCOC4=O)c3)N2C1=O (some centres unmarked) [VII-17] | 100 to 1000
2 | CN[C@@H](C)C(=O)N[C@H]1CCCC[C@H]2CC[C@@H](C(=O)NCc3cccc(C(=O)N[C@@H]4CCOC4=O)c3)N2C1=O [VII-27] | 100 to 1000
3 | CN[C@@H](C)C(=O)N[C@H]1CCCC[C@H]2CC[C@@H](C(=O)NCc3cccc(C(=O)N4C[C@H]5C[C@@H]4C(=O)O5)c3)N2C1=O [VII-25] | 100 to 1000
4 | CN[C@@H](C)C(=O)N[C@H]1CCCC[C@H]2CC[C@@H](C(=O)NCc3cccc(C(=O)OC4C(=O)OCC4(C)C)c3)N2C1=O (some centres unmarked) [VII-14] | 1000 to 10000
5 | CN[C@@H](C)C(=O)N[C@H]1CCCC[C@H]2CC[C@@H](C(=O)NCc3cccc(NC(=O)C45CC[C@@](C)(C(=O)O4)C5(C)C)c3)N2C1=O [VII-24] | 100 to 1000
6 | CN[C@@H](C)C(=O)N[C@H]1CCCC[C@H]2CC[C@@H](C(=O)NCc3cccc(NC(=O)CC(=O)C(F)(F)F)c3)N2C1=O [VII-9] | 100 to 1000
7 | C=CC(=O)NCc1cccc(CNC(=O)[C@@H]2CC[C@@H]3CCCC[C@H](NC(=O)[C@H](C)NC)C(=O)N32)c1 [VII-18] | 100 to 1000
8 | CN[C@@H](C)C(=O)N[C@H]1CCCC[C@H]2CC[C@@H](C(=O)NCc3cccc(C(C(C)=O)C(C)=O)c3)N2C1=O [VII-8] | 100 to 1000
9 | CN[C@@H](C)C(=O)N[C@H]1CCCC[C@H]2CC[C@@H](C(=O)NCc3cccc(C(=O)N[C@H]4CCOC4=O)c3)N2C1=O [VII-13, (3S,6S,10aS)-6-((S)-2-(methylamino)propanamido)-5-oxo-N-(3-((S)-2-oxotetrahydrofuran-3-ylcarbamoyl)benzyl)decahydropyrrolo[1,2-a]azocine-3-carboxamide] | 100 to 1000
10 | CN[C@@H](C)C(=O)N[C@H]1CCCC[C@H]2CC[C@@H](C(=O)NCc3cccc(NC(=O)CC(C)=O)c3)N2C1=O [VII-6] | 10 to 100
11 | CN[C@@H](C)C(=O)N[C@H]1CCCC[C@H]2CC[C@@H](C(=O)NCc3cccc(C(=O)C=C(C)C)c3)N2C1=O [VII-19] | 10 to 100
12 | CN[C@@H](C)C(=O)N[C@H]1CCCC[C@H]2CC[C@@H](C(=O)NCc3cccc(NC(=O)C45CC[C@](C)(C(=O)O4)C5(C)C)c3)N2C1=O [VII-26] | 100 to 1000
13 | CN[C@@H](C)C(=O)N[C@H]1CCCC[C@H]2CC[C@@H](C(=O)NCc3cccc(NC(=O)C=C(C)C)c3)N2C1=O [VII-12] | 10 to 100
14 | CN[C@@H](C)C(=O)N[C@H]1CCCC[C@H]2CC[C@@H](C(=O)NCc3cccc(NC(=O)[C@@H]4CCC(=O)O4)c3)N2C1=O [VII-3] | 100 to 1000
15 | CN[C@@H](C)C(=O)N[C@H]1CCCC[C@H]2CC[C@@H](C(=O)NCc3cccc(CNC(=O)[C@@H]4CCC(=O)O4)c3)N2C1=O [VII-32] | 100 to 1000
16 | CC(=O)C(C(C)=O)c1cccc(CNC(=O)[C@@H]2CC[C@@H]3CCCC[C@H](NC(=O)[C@H](C)N(C)C(=O)OC(C)(C)C)C(=O)N32)c1 [VII-7, tert-butyl(S)-1-((3S,6S,10aS)-3-(3-(2,4-dioxopentan-3-yl)benzylcarbamoyl)-5-oxodecahydropyrrolo[1,2-a]azocin-6-ylamino)-1-oxopropan-2-yl(methyl)carbamate] | > 10000
17 | CN[C@@H](C)C(=O)N[C@H]1CCCC[C@H]2CC[C@@H](C(=O)NCc3cccc(NC(=O)/C=C/CN(C)C)c3)N2C1=O [VII-10] | 100 to 1000
18 | CN[C@@H](C)C(=O)N[C@H]1CCCC[C@H]2CC[C@@H](C(=O)NCc3cccc(Nc4c(OC(C)C)c(=O)c4=O)c3)N2C1=O [VII-5] | 100 to 1000
19 | CN[C@@H](C)C(=O)N[C@H]1CCCC[C@H]2CC[C@@H](C(=O)NCc3cccc(C(=O)N4CCOC(=O)C4)c3)N2C1=O [VII-31] | 100 to 1000
20 | CN[C@@H](C)C(=O)N[C@H]1CCCC[C@H]2CC[C@@H](C(=O)NCc3cccc(C(=O)OC4CCOC4=O)c3)N2C1=O (some centres unmarked) [VII-15] | 100 to 1000
21 | CN[C@@H](C)C(=O)N[C@H]1CCCC[C@H]2CC[C@@H](C(=O)NCc3cccc(NC(=O)[C@@H]4CC(=O)N4)c3)N2C1=O [VII-4] | 100 to 1000
22 | CN[C@@H](C)C(=O)N[C@H]1CCCC[C@H]2CC[C@@H](C(=O)NCc3cccc(C(=O)N4C[C@@H]5C[C@H]4C(=O)O5)c3)N2C1=O [VII-20, (3S,6S,10aS)-6-((S)-2-(methylamino)propanamido)-5-oxo-N-(3-((1S,4S)-3-oxo-2-oxa-5-azabicyclo[2.2.1]heptane-5-carbonyl)benzyl)decahydropyrrolo[1,2-a]azocine-3-carboxamide] | 100 to 1000
23 | CN[C@@H](C)C(=O)N[C@H]1CCCC[C@H]2CC[C@@H](C(=O)NCc3cccc(C(=O)N[C@@H]4COC(=O)C4)c3)N2C1=O [VII-22] | 100 to 1000
24 | C=C(C)C(=O)Nc1cccc(CNC(=O)[C@@H]2CC[C@@H]3CCCC[C@H](NC(=O)[C@H](C)NC)C(=O)N32)c1 [VII-11] | 100 to 1000

The remaining lines, values ahead:

Row | Ki [nM] | Compound
25 | 1000 to 10000 | CN[C@@H](C)C(=O)N[C@H]1CCCC[C@H]2CC[C@@H](C(=O)NCc3cccc(C(=O)N4CCC5C[C@H]4C(=O)O5)c3)N2C1=O [VII-47]
26 | 1000 to 10000 | CN[C@@H](C)C(=O)N[C@H]1CCCC[C@H]2CC[C@@H](C(=O)NCc3cccc(NC(=O)C4COC(=O)C4)c3)N2C1=O (some centres unmarked) [VII-45]
27 | 1000 to 10000 | CN[C@@H](C)C(=O)N[C@H]1CCCC[C@H]2CC[C@@H](C(=O)NCc3cccc(CNC(=O)[C@H]4CCC(=O)O4)c3)N2C1=O [VII-33]
28 | 100 to 1000 | CN[C@@H](C)C(=O)N[C@H]1CCCC[C@H]2CC[C@@H](C(=O)NCc3cccc(NC(=O)C4CCCC(=O)O4)c3)N2C1=O (some centres unmarked) [VII-46]
29 | 100 to 1000 | CN[C@@H](C)C(=O)N[C@H]1CCCC[C@H]2CC[C@@H](C(=O)NCc3cccc(C(=O)NC[C@H]4CCC(=O)O4)c3)N2C1=O [VII-41]
30 | 100 to 1000 | CN[C@@H](C)C(=O)N[C@H]1CCCC[C@H]2CC[C@@H](C(=O)NCc3cccc(C(=O)N4CCC5CC4C(=O)O5)c3)N2C1=O (some centres unmarked) [VII-48]
31 | 100 to 1000 | CN[C@@H](C)C(=O)N[C@H]1CCCC[C@H]2CC[C@@H](C(=O)NCc3cccc(NC(=O)C4(C(C)=O)CC4)c3)N2C1=O [VII-34]
32 | 1000 to 10000 | CN[C@@H](C)C(=O)N[C@H]1CCCC[C@H]2CC[C@@H](C(=O)NCc3cccc(NC(=O)[C@@H]4CCC(=O)N4)c3)N2C1=O [VII-38]
33 | 100 to 1000 | CN[C@@H](C)C(=O)N[C@H]1CCCC[C@H]2CC[C@@H](C(=O)NCc3cccc(NC(=O)C4CCOC4=O)c3)N2C1=O (some centres unmarked) [VII-44]
34 | 100 to 1000 | CN[C@@H](C)C(=O)N[C@H]1CCCC[C@H]2CC[C@@H](C(=O)NCc3cccc(NC(=O)[C@H]4CCC(=O)N4)c3)N2C1=O [VII-39]
35 | 100 to 1000 | CN[C@@H](C)C(=O)N[C@H]1CCCC[C@H]2CC[C@@H](C(=O)NCc3cccc(C(=O)NC[C@@H]4CCC(=O)O4)c3)N2C1=O [VII-42]
